Laboratory results published in PubChem BioAssay AID2060902 (Molecular Pharmacology Branch, DTP, NCI, 2025).

Tested on: 485368-065-R3-J5-PDC spheroids with HUVEC/MSC, viability
Experiment: Anticancer human tumor 485368-065-R3-J5-PDC patient-derived pancreatic carcinoma cell line growth inhibition [RAS]
Conditions: for IC50: curve of first compound; for viability, T/C: stronger effect = lower value
Procedure, shortened: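 Multi-cell-type spheroids: tumor cells plus HUVEC endothelial cells and mesenchymal stem cells. RAS-pathway inhibitors were combined with targeted agents, each dosed in half-log steps down from clinical Cmax, or from 10 microM when Cmax was unknown.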
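Also: spheroids exposed to agents for seven days before readout.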

**Q.** With `CC(=O)OC12COC1CC(O)C1(C)C(=O)C(O)C3=C(C)C(OC(=O)C(O)C(NC(=O)OC(C)(C)C)c4ccccc4)CC(O)(C(OC(=O)c4ccccc4)C21)C3(C)C` (centres undefined) + CCn1c(-c2cc(N3CCN(C)CC3)cnc2C(C)OC)c2c3cc(ccc31)-c1csc(n1)CC(NC(=O)C1CC1C)C(=O)N1CCCC(N1)C(=O)OCC(C)(C)C2 as the compound, how does the IC50 (second compound 0.000949 µM) read?
**A.** < 0.0316 µM

**Q.** And the IC50 (second compound 0.003 µM)?
**A.** < 0.0316 µM

**Q.** And the IC50 (second compound 0.00949 µM)?
**A.** < 0.0316 µM

**Q.** And the IC50 (second compound 0.03 µM)?
**A.** < 0.0316 µM

**Q.** What about the IC50 (second compound 0.0949 µM) of the same compound?
**A.** < 0.0316 µM

**Q.** And the IC50 (second compound 0.3 µM)?
**A.** < 0.0316 µM

**Q.** And the viability, T/C (second compound 0.000949 µM, first compound 0.0316 µM)?
**A.** 11.7%

**Q.** And the viability, T/C (second compound 0.000949 µM, first compound 0.1 µM)?
**A.** 10.4%

**Q.** And the viability, T/C (second compound 0.000949 µM, first compound 0.316 µM)?
**A.** 12.1%

**Q.** And the viability, T/C (second compound 0.000949 µM, first compound 1 µM)?
**A.** 14.3%

**Q.** What about the viability, T/C (second compound 0.000949 µM, first compound 3.16 µM) of the same compound?
**A.** 15.2%

**Q.** What about the viability, T/C (second compound 0.000949 µM, first compound 10 µM) of the same compound?
**A.** 19.9%

**Q.** And the viability, T/C (second compound 0.003 µM, first compound 0.0316 µM)?
**A.** 10.7%

**Q.** What about the viability, T/C (second compound 0.003 µM, first compound 0.1 µM) of the same compound?
**A.** 13.2%

**Q.** And the viability, T/C (second compound 0.003 µM, first compound 0.316 µM)?
**A.** 12.2%

**Q.** And the viability, T/C (second compound 0.003 µM, first compound 1 µM)?
**A.** 14.1%

**Q.** And the viability, T/C (second compound 0.003 µM, first compound 3.16 µM)?
**A.** 15.3%

**Q.** And the viability, T/C (second compound 0.003 µM, first compound 10 µM)?
**A.** 13.6%

**Q.** What about the viability, T/C (second compound 0.00949 µM, first compound 0.0316 µM) of the same compound?
**A.** 9.77%

**Q.** What about the viability, T/C (second compound 0.00949 µM, first compound 0.1 µM) of the same compound?
**A.** 12.6%

**Q.** What about the viability, T/C (second compound 0.00949 µM, first compound 0.316 µM) of the same compound?
**A.** 10%

**Q.** What about the viability, T/C (second compound 0.00949 µM, first compound 1 µM) of the same compound?
**A.** 8.97%

**Q.** What about the viability, T/C (second compound 0.00949 µM, first compound 3.16 µM) of the same compound?
**A.** 11.4%

**Q.** And the viability, T/C (second compound 0.00949 µM, first compound 10 µM)?
**A.** 10.5%

**Q.** And the viability, T/C (second compound 0.03 µM, first compound 0.0316 µM)?
**A.** 7.89%

**Q.** What about the viability, T/C (second compound 0.03 µM, first compound 0.1 µM) of the same compound?
**A.** 8.87%

**Q.** What about the viability, T/C (second compound 0.03 µM, first compound 0.316 µM) of the same compound?
**A.** 8.33%

**Q.** And the viability, T/C (second compound 0.03 µM, first compound 1 µM)?
**A.** 9.73%

**Q.** And the viability, T/C (second compound 0.03 µM, first compound 3.16 µM)?
**A.** 10.6%

**Q.** What about the viability, T/C (second compound 0.03 µM, first compound 10 µM) of the same compound?
**A.** 10.7%

**Q.** And the viability, T/C (second compound 0.0949 µM, first compound 0.0316 µM)?
**A.** 7.57%

**Q.** What about the viability, T/C (second compound 0.0949 µM, first compound 0.1 µM) of the same compound?
**A.** 8.27%

**Q.** What about the viability, T/C (second compound 0.0949 µM, first compound 0.316 µM) of the same compound?
**A.** 7.87%

**Q.** What about the viability, T/C (second compound 0.0949 µM, first compound 1 µM) of the same compound?
**A.** 7.97%

**Q.** And the viability, T/C (second compound 0.0949 µM, first compound 3.16 µM)?
**A.** 10.9%

**Q.** What about the viability, T/C (second compound 0.0949 µM, first compound 10 µM) of the same compound?
**A.** 8.11%

**Q.** What about the viability, T/C (second compound 0.3 µM, first compound 0.0316 µM) of the same compound?
**A.** 7.3%

**Q.** What about the viability, T/C (second compound 0.3 µM, first compound 0.1 µM) of the same compound?
**A.** 7.09%

**Q.** What about the viability, T/C (second compound 0.3 µM, first compound 0.316 µM) of the same compound?
**A.** 7.44%

**Q.** What about the viability, T/C (second compound 0.3 µM, first compound 1 µM) of the same compound?
**A.** 8.55%

**Q.** And the viability, T/C (second compound 0.3 µM, first compound 3.16 µM)?
**A.** 10.2%

**Q.** What about the viability, T/C (second compound 0.3 µM, first compound 10 µM) of the same compound?
**A.** 6.81%

**Q.** How did the IC50 (second compound 0.000949 µM) turn out when `CCc1c2c(nc3ccc(O)cc13)-c1cc3c(c(=O)n1C2)COC(=O)[C@]3(O)CC` + CCn1c(-c2cc(N3CCN(C)CC3)cnc2C(C)OC)c2c3cc(ccc31)-c1csc(n1)CC(NC(=O)C1CC1C)C(=O)N1CCCC(N1)C(=O)OCC(C)(C)C2 was run?
**A.** < 0.000949 µM

**Q.** What about the IC50 (second compound 0.003 µM) of the same compound?
**A.** < 0.000949 µM

**Q.** What about the IC50 (second compound 0.00949 µM) of the same compound?
**A.** < 0.000949 µM

**Q.** What about the IC50 (second compound 0.03 µM) of the same compound?
**A.** < 0.000949 µM

**Q.** And the IC50 (second compound 0.0949 µM)?
**A.** < 0.000949 µM

**Q.** And the IC50 (second compound 0.3 µM)?
**A.** < 0.000949 µM

**Q.** And the viability, T/C (second compound 0.000949 µM, first compound 0.000949 µM)?
**A.** 29.2%

**Q.** And the viability, T/C (second compound 0.000949 µM, first compound 0.003 µM)?
**A.** 19.3%

**Q.** And the viability, T/C (second compound 0.000949 µM, first compound 0.00949 µM)?
**A.** 12.3%

**Q.** And the viability, T/C (second compound 0.000949 µM, first compound 0.03 µM)?
**A.** 6.49%

**Q.** What about the viability, T/C (second compound 0.000949 µM, first compound 0.0949 µM) of the same compound?
**A.** 3.81%

**Q.** What about the viability, T/C (second compound 0.000949 µM, first compound 0.3 µM) of the same compound?
**A.** 3.85%

**Q.** And the viability, T/C (second compound 0.003 µM, first compound 0.000949 µM)?
**A.** 17.6%

**Q.** What about the viability, T/C (second compound 0.003 µM, first compound 0.003 µM) of the same compound?
**A.** 13.6%

**Q.** And the viability, T/C (second compound 0.003 µM, first compound 0.00949 µM)?
**A.** 9.1%

**Q.** And the viability, T/C (second compound 0.003 µM, first compound 0.03 µM)?
**A.** 7.85%

**Q.** And the viability, T/C (second compound 0.003 µM, first compound 0.0949 µM)?
**A.** 5.44%

**Q.** What about the viability, T/C (second compound 0.003 µM, first compound 0.3 µM) of the same compound?
**A.** 3.67%

**Q.** What about the viability, T/C (second compound 0.00949 µM, first compound 0.000949 µM) of the same compound?
**A.** 15.4%

**Q.** What about the viability, T/C (second compound 0.00949 µM, first compound 0.003 µM) of the same compound?
**A.** 11.8%

**Q.** And the viability, T/C (second compound 0.00949 µM, first compound 0.00949 µM)?
**A.** 8.19%

**Q.** And the viability, T/C (second compound 0.00949 µM, first compound 0.03 µM)?
**A.** 7.82%

**Q.** What about the viability, T/C (second compound 0.00949 µM, first compound 0.0949 µM) of the same compound?
**A.** 5.53%

**Q.** And the viability, T/C (second compound 0.00949 µM, first compound 0.3 µM)?
**A.** 6.59%

**Q.** And the viability, T/C (second compound 0.03 µM, first compound 0.000949 µM)?
**A.** 9.82%

**Q.** And the viability, T/C (second compound 0.03 µM, first compound 0.003 µM)?
**A.** 8.14%

**Q.** And the viability, T/C (second compound 0.03 µM, first compound 0.00949 µM)?
**A.** 6.87%

**Q.** And the viability, T/C (second compound 0.03 µM, first compound 0.03 µM)?
**A.** 8.66%

**Q.** And the viability, T/C (second compound 0.03 µM, first compound 0.0949 µM)?
**A.** 5.8%

**Q.** What about the viability, T/C (second compound 0.03 µM, first compound 0.3 µM) of the same compound?
**A.** 7.18%

**Q.** And the viability, T/C (second compound 0.0949 µM, first compound 0.000949 µM)?
**A.** 8.87%

**Q.** What about the viability, T/C (second compound 0.0949 µM, first compound 0.003 µM) of the same compound?
**A.** 8.54%

**Q.** What about the viability, T/C (second compound 0.0949 µM, first compound 0.00949 µM) of the same compound?
**A.** 6.42%

**Q.** What about the viability, T/C (second compound 0.0949 µM, first compound 0.03 µM) of the same compound?
**A.** 6.3%

**Q.** What about the viability, T/C (second compound 0.0949 µM, first compound 0.0949 µM) of the same compound?
**A.** 6.27%

**Q.** What about the viability, T/C (second compound 0.0949 µM, first compound 0.3 µM) of the same compound?
**A.** 5.48%

**Q.** And the viability, T/C (second compound 0.3 µM, first compound 0.000949 µM)?
**A.** 7.33%

**Q.** What about the viability, T/C (second compound 0.3 µM, first compound 0.003 µM) of the same compound?
**A.** 9.17%

**Q.** And the viability, T/C (second compound 0.3 µM, first compound 0.00949 µM)?
**A.** 6.28%

**Q.** And the viability, T/C (second compound 0.3 µM, first compound 0.03 µM)?
**A.** 5.07%

**Q.** And the viability, T/C (second compound 0.3 µM, first compound 0.0949 µM)?
**A.** 5.93%

**Q.** And the viability, T/C (second compound 0.3 µM, first compound 0.3 µM)?
**A.** 5.26%
